Common to all, as to assay type: physicochemical
Data set [1] in a line: Storage stability of the epoxide at room temperature. The method, then: The epoxidation may be performed on the starting olefinic compound by any suitable method known in the art, but is preferably conducted through a potassium monopersulfate/acetone oxidation of the olefinic portion of the corresponding styrene. The styrene compound is suspended in a mixture of acetone and water, and buffered with sodium bicarbonate, which serves to prevent decomposition of the resultant oxides. This suspension is then treated with an excess of the oxidant, provided as an aqueous solution of the monopersulfate compound (2KHSO5.KHSO4.K2SO4,) (Oxone®, a product of DuPont). The recovered solution is partitioned with ethyl acetate, toluene, methylene chloride, or other suitable solvent. Workup consists of washing the organic layer with water followed by drying with a non-acidic drying agent (e.g., anhydrous […]). Filtering this mixture, followed by removal of organic solvent in vacuo, affords the desired epoxide in high yield without further purification. […]
A suspension of 1 equivalent of 1,3-diisopropenyl benzene (5mL, 0.925g/mL, 29.2mmol) and 6 equivalents of sodium bicarbonate (15.9g, 190mmol) in a 2 : 1 mixture (volume : volume) of acetone : water (total 450mL) was treated with an aqueous solution containing 2 equivalents of potassium persulfate (Oxone®) (36.5g, 59.3mmol). […] The pH was monitored during this time and remained neutral. […]

The nature of data set [2]: Photo-DSC analysis of various styrene oxides formulated with photoinitiator and diol (Example 6).
Method: A sample in the range of 1.5 to 3.0 mg for each composition was exposed to UV radiation and the rate of cure followed by a DPA-7 Perkin-Elmer Photo-Differential Scanning Calorimeter (P-DSC). Each sample was equilibrated to constant temperature (25 °C) on the Calorimeter for one minute and then exposed to irradiation for a total of four minutes using a 100 Watt Mercury short arc lamp. […] In the Tables, Tmax is the time it took to reach the peak maximum exotherm in seconds, and ΔH is the exotherm of the reaction in kJoules per mole of epoxy, measured as the area over the cure from the four minute baseline back to the onset of exotherm.
Photo-DSC of various styrene oxides was conducted by formulating the epoxides with a photoinitiator and a diol.
Data set [3] in a line: Photo-DSC (P-DSC) UV cure of epoxide/diol adhesive compositions (Example 3). On the procedure:
These compositions were compared to control formulations containing a cycloaliphatic epoxide obtained from Union Carbide, as product ERL-4221, which has the structure: [drawing 5]
A sample in the range of 1.5 to 3.0 mg for each composition was exposed to UV radiation and the rate of cure followed by a DPA-7 Perkin-Elmer Photo-Differential Scanning Calorimeter (P-DSC). Each sample was equilibrated to constant temperature (25 °C) on the Calorimeter for one minute and then exposed to irradiation for a total of four minutes using a 100 Watt Mercury short arc lamp. […] The diol used in the compositions, the molar ratio of epoxy to diol, and the DSC results are set out in Table 1 for the inventive styrene epoxy, and in Table 2 for the cycloaliphatic epoxy. In the Tables, Tmax is the time it took to reach the peak maximum exotherm in seconds, and ΔH is the exotherm of the reaction in kJoules per mole of epoxy, measured as the area over the cure from the four minute baseline back to the onset of exotherm.
The time the reaction takes to reach Tmax is a direct indication of the speed of the reaction; thus, the shorter the time (i.e. the sharper the peak), the faster the cure reaction for the epoxy, which is a desirable property for these adhesive compositions. In the following tables, the peak are designated either sharp or broad; for purposes herein, if more than half the exotherm occurred in the first 30 seconds, the peak was defined as sharp, and conversely, if less than half the exotherm occurred in the first 30 seconds, the peak was defined as broad.
The ΔH values are a direct indication of the degree of epoxy ring opening, with the more negative numbers reflecting the higher degree of conversion of the epoxy.

Where [4] appears, read: Stepanol PS-4002, Epoxy:Diol 1:1.
Setting [5] is: Stepanol PS-4002, Epoxy:Diol 3:1.

For the molecule divinylbenzene dioxide [Example 2], in data set [1] (after one year at room temperature), the “advancement of the epoxide” value was “no advancement”.

On to `CC(=O)OCC1OC1c1ccccc1` (stereo not drawn) [cinnamyl acetate epoxy, cinnamyl acetate epoxide], for which the ΔH was -27.5 kJ/Mole EPOXIDE in data set [2] (MP-diol, Epoxy:Diol 1:1); -16.1 kJ/Mole EPOXIDE in data set [2] (MP-diol, Epoxy:Diol 3:1); -55.6 kJ/Mole EPOXIDE in data set [2] (Tone polyol, Epoxy:Diol 1:1); -30.8 kJ/Mole EPOXIDE in data set [2] (Tone polyol, Epoxy:Diol 3:1); 0 kJ/Mole EPOXIDE in data set [2] (no diol).

Take `COc1cc(C2OC2C)ccc1OC(C)=O` (stereo not drawn) [isoeugenol acetate epoxy, isoeugenol acetate epoxide]: the ΔH in data set [2] (MP-diol, Epoxy:Diol 1:1) is recorded as -70,1 kJ/Mole EPOXIDE; in data set [2] (MP-diol, Epoxy:Diol 3:1), -67.6 kJ/Mole EPOXIDE; in data set [2] (Tone polyol, Epoxy:Diol 1:1) it was -75.0 kJ/Mole EPOXIDE; in data set [2] (Tone polyol, Epoxy:Diol 3:1) it was -65.0 kJ/Mole EPOXIDE; in data set [2] (no diol) it was -15.7 kJ/Mole EPOXIDE.

For `COCC1OC1c1ccccc1` (stereo not drawn) [cinnamyl methyl ether epoxy, cinnamyl methyl ether epoxide], the ΔH in data set [2] (MP-diol, Epoxy:Diol 1:1) is -57.8 kJ/Mole EPOXIDE; in data set [2] (MP-diol, Epoxy:Diol 3:1), -63.6 kJ/Mole EPOXIDE; in data set [2] (Tone polyol, Epoxy:Diol 1:1), -98,8 kJ/Mole EPOXIDE; in data set [2] (Tone polyol, Epoxy:Diol 3:1), -82,4 kJ/Mole EPOXIDE; in data set [2] (no diol), -43.9 kJ/Mole EPOXIDE.

Turning to `O=C(OCC1CCC2OC2C1)C1CCC2OC2C1` (stereo not drawn) [ERL-4221], the Tmax in data set [3] (MP-diol, Epoxy:Diol 1:1) was 21.20 s; in data set [3] (MP-diol, Epoxy:Diol 3:1), 6.39 s; in data set [3] (Rucoflex 107, Epoxy:Diol 1:1) it was 6.81 s; in data set [3] (Rucoflex 107, Epoxy:Diol 3:1) it was 2.10 s; in data set [3] (setting [4]) it was 17.10 s; in data set [3] (setting [5]), 5.34 s. Moreover, the Tmax turned out to be 13.47 s in data set [3] (SynFac 8031, Epoxy:Diol 1:1); 13.17 s in data set [3] (SynFac 8031, Epoxy:Diol 3:1); 9.21 s in data set [3] (Tone 0201, Epoxy:Diol 1:1); 42.66 s in data set [3] (Tone 0201, Epoxy:Diol 1:3); 6.00 s in data set [3] (Tone 0201, Epoxy:Diol 3:1); 4.62 s in data set [3] (no diol, 1% UVI-6974, 25 °C). Moreover, the ΔH in data set [3] (MP-diol, Epoxy:Diol 1:1) is -78.4 kJ/mole epoxide; in data set [3] (MP-diol, Epoxy:Diol 3:1), -49.0 kJ/mole epoxide; in data set [3] (Rucoflex 107, Epoxy:Diol 1:1) it was -68.9 kJ/mole epoxide; in data set [3] (Rucoflex 107, Epoxy:Diol 3:1), -42.9 kJ/mole epoxide; in data set [3] (setting [4]), -79.4 kJ/mole epoxide; in data set [3] (setting [5]) it was -14.3 kJ/mole epoxide. Further, the ΔH was -67.8 kJ/mole epoxide in data set [3] (SynFac 8031, Epoxy:Diol 1:1); -39.7 kJ/mole epoxide in data set [3] (SynFac 8031, Epoxy:Diol 3:1); -62.0 kJ/mole epoxide in data set [3] (Tone 0201, Epoxy:Diol 1:1); -44.0 kJ/mole epoxide in data set [3] (Tone 0201, Epoxy:Diol 1:3); -30.3 kJ/mole epoxide in data set [3] (Tone 0201, Epoxy:Diol 3:1); -10.0 kJ/mole epoxide in data set [3] (no diol, 1% UVI-6974, 25 °C). In data set [3] (range over all diols and ratios of Tables 1 and 2), the extents of cure is reported as -79.4 to -10.0 kJ.

“1,3-diisopropenylbenzene dioxide [Example 1]”: the Tmax in data set [3] (MP-diol, Epoxy:Diol 1:1) came out at 4.35 s; in data set [3] (MP-diol, Epoxy:Diol 3:1) it was 2.94 s; in data set [3] (Rucoflex 107, Epoxy:Diol 1:1) it was 4.32 s; in data set [3] (Rucoflex 107, Epoxy:Diol 3:1), 4.20 s; in data set [3] (setting [4]) it was 6.12 s; in data set [3] (setting [5]), 4.83 s. Also, the Tmax in data set [3] (SynFac 8031, Epoxy:Diol 1:1) came out at 4.74 s; in data set [3] (SynFac 8031, Epoxy:Diol 3:1), 3.57 s; in data set [3] (Tone 0201, Epoxy:Diol 1:1), 3.57 s; in data set [3] (Tone 0201, Epoxy:Diol 1:3), 4.59 s; in data set [3] (Tone 0201, Epoxy:Diol 3:1), 3.96 s; in data set [3] (no diol, 1% UVI-6974, 25 °C) it was 3.84 s. Moreover, the ΔH was -77.4 kJ/mole epoxide in data set [3] (MP-diol, Epoxy:Diol 1:1); -58.2 kJ/mole epoxide in data set [3] (MP-diol, Epoxy:Diol 3:1); -84.1 kJ/mole epoxide in data set [3] (Rucoflex 107, Epoxy:Diol 1:1); -79.1 kJ/mole epoxide in data set [3] (Rucoflex 107, Epoxy:Diol 3:1); -76.0 kJ/mole epoxide in data set [3] (setting [4]); -62.6 kJ/mole epoxide in data set [3] (setting [5]). For the same molecule, the ΔH is given as -71.8 kJ/mole epoxide in data set [3] (SynFac 8031, Epoxy:Diol 1:1); -65.5 kJ/mole epoxide in data set [3] (SynFac 8031, Epoxy:Diol 3:1); -73.4 kJ/mole epoxide in data set [3] (Tone 0201, Epoxy:Diol 1:1); -75.9 kJ/mole epoxide in data set [3] (Tone 0201, Epoxy:Diol 1:3); -56.4 kJ/mole epoxide in data set [3] (Tone 0201, Epoxy:Diol 3:1); -57.8 kJ/mole epoxide in data set [3] (no diol, 1% UVI-6974, 25 °C). In addition, the ΔH in data set [2] (Tone polyol, Epoxy:Diol 1:1) was -72.8 kJ/Mole EPOXIDE; in data set [2] (no diol) it was -57.8 kJ/Mole EPOXIDE. Further, the “advancement of the epoxide” value in data set [1] (after 13 days at room temperature) is recorded as “no advancement”.

With `CC1OC1c1ccccc1` (stereo not drawn) [beta-methyl styrene epoxy, beta-methyl styrene mono-epoxide], the ΔH in data set [2] (MP-diol, Epoxy:Diol 1:1) was -102.6 kJ/Mole EPOXIDE; in data set [2] (MP-diol, Epoxy:Diol 3:1), -75.7 kJ/Mole EPOXIDE; in data set [2] (Tone polyol, Epoxy:Diol 1:1), -80.5 kJ/Mole EPOXIDE; in data set [2] (Tone polyol, Epoxy:Diol 3:1) it was -54.5 kJ/Mole EPOXIDE; in data set [2] (no diol), -85.4 kJ/Mole EPOXIDE.

Take `CC1(c2ccccc2)CO1` (stereo not drawn) [alpha methyl styrene epoxy]: the ΔH in data set [2] (MP-diol, Epoxy:Diol 1:1) is given as -80.9 kJ/Mole EPOXIDE; in data set [2] (MP-diol, Epoxy:Diol 3:1), -56.4 kJ/Mole EPOXIDE; in data set [2] (Tone polyol, Epoxy:Diol 1:1) it was -76.5 kJ/Mole EPOXIDE; in data set [2] (Tone polyol, Epoxy:Diol 3:1) it was -66.7 kJ/Mole EPOXIDE; in data set [2] (no diol), -53.3 kJ/Mole EPOXIDE.

The values are drawn from patent EP0878472A1, “Reactive radiation- or thermally- initiated cationically-curable epoxide monomers and compositions made from those monomers” (National Starch and Chemical Investment Holding Corporation, priority 1997, dated 1998).
